IC50 and inhibition data for 24 molecules are collected here from patent publication US9527832B2, “Substituted condensed pyrimidine compounds” (GRÜNENTHAL GMBH, priority 2013, dated 2016).

The structures appear in SMILES notation. pIC50: −log10 of the molar value.

For this assay, the target named is T1, human PDE4B1 (Homo sapiens, UniProt Q07343).
T1 construct: host or cells: Sf9 cells
Kind of assay: cAMP HTRF assay to determine the activity of hPDE4B1. The format is biochemical. To be noted: for pIC50: dose response measurements with eight concentrations, reported as ranges, read-out: IC50; for inhibition at 1 µM: Percentage inhibition of PDE4B at 1 μM test concentration. Here is the method:
cAMP HTRF® Assay to Determine the Activity of hPDE4B1
The inhibiting effect of the compounds on the enzyme activity of human PDE4B1 was measured by the quantification of 5′-adenosine monophosphate (5′-AMP), which is formed from 3′,5′-cyclic adenosine monophosphate (cAMP). Human recombinant enzyme, expressed in Sf9 cells, and the HTRF (homogeneous time-resolved fluorescence) detection method were used in the assay.
The test compound or water (control) was mixed with the human recombinant PDE4B1 enzyme (4.8 U) in a buffer consisting of 44.4 mM tris-HCl, 5.28 mM MgCl2, 2.64 mM DTT and 0.044% Tween 20 (pH 7.8). After adding the cAMP enzyme substrate (final concentration 40 nM), the mixture was incubated for 30 minutes at room temperature. Then a fluorescence acceptor (Dye2 marked with cAMP), a fluorescence donor (anti-cAMP antibody marked with a europium cryptate) and the non-specific phosphodiesterase inhibitor IBMX (3-isobutyl-1-methylxanthine; final concentration 1 mM) were added. After 60 minutes the fluorescence transfer, which correlates with the amount of remaining cAMP, was measured with a microplate reader (Rubystar, BMG) at λex=337 nm, λem=620 nm and λem=665 nm. The enzyme activity was calculated from the quotient formed from the measured signal at 665 nm and that at 620 nm. The result was expressed as the percentage inhibition of enzyme activity of the control (without PDE4 inhibitor). The enzyme was omitted for measurement of the basal control.
IC50 values (IC50=concentration causing a half-maximal inhibition of control specific activity) were derived from dose response measurements with eight different concentrations (n=2; N=1-2).
Literature: N. Saldou et al., Comparison of recombinant human PDE4 isoforms: interaction with substrate and inhibitors, Cell. Signal. Vol. 10, No. 6, 427-440, 1998

T1 sequence (Q07343 whole entry): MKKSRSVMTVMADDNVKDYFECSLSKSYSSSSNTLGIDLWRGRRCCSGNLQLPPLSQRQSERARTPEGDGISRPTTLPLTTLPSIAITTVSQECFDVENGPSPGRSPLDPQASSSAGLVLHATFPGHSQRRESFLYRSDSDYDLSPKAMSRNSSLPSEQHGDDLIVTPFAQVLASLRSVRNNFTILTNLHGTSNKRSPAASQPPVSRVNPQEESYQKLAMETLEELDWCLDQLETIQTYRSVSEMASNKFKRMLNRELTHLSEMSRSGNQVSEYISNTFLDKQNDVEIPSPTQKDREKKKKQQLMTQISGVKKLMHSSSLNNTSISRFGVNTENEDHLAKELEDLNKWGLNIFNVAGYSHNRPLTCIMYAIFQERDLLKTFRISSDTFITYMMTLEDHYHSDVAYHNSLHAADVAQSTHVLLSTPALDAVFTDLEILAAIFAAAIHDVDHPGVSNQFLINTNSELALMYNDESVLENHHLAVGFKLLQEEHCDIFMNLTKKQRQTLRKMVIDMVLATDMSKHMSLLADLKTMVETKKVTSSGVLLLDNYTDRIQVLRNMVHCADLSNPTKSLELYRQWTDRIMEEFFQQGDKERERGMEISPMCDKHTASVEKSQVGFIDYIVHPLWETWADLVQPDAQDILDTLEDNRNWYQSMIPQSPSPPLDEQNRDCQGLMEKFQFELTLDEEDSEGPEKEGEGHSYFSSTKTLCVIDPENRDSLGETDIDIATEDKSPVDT

On to `CCNC(=O)Cc1ccc2c(c1)CCN2c1nc(-c2ccc(Cl)s2)nc2c1CS(=O)(=O)C2` [Compound No. 3-4, 2-(1-(2-(5-Chlorothiophen-2-yl)-6,6-dioxido-5,7-dihydrothieno[3,4-d]pyrimidin-4-yl)indolin-5-yl)-N-ethylacetamide], for which the pIC50 is 6.00 to 7.00.

Turning to `CN(C)C(=O)COc1ccc2c(c1)ncn2-c1nc(-c2ccc(Cl)s2)nc2c1C[S+]([O-])C2` (single isomer, unassigned) [Compound No. 2-75, 2-((1-(2-(5-Chlorothiophen-2-yl)-6-oxido-5,7-dihydrothieno[3,4-d]pyrimidin-4-yl)-1H-benzo[d]imidazol-5-yl)oxy)-N,N-dimethylacetamide], the inhibition at 1 µM is 39%.

As for `N#CCOc1ccc2c(c1)N(c1nc(-c3ccc(Cl)s3)nc3c1CS(=O)(=O)C3)CC2` [Compound No. 3-1, 2-((1-(2-(5-Chlorothiophen-2-yl)-6,6-dioxido-5,7-dihydrothieno[3,4-d]pyrimidin-4-yl)indolin-6-yl)oxy)acetonitrile], the pIC50 is 6.00 to 7.00.

In the case of `O=C(O)Cc1ccc2c(c1)CC(=O)N2c1nc(-c2ccc(Cl)s2)nc2c1CCC2` [Compound No. 1-64, 2-(1-(2-(5-Chlorothiophen-2-yl)-6,7-dihydro-5H-cyclopenta[d]-pyrimidin-4-yl)-2-oxoindolin-5-yl)acetic acid], the inhibition at 1 µM stood at 28%.

For `COc1ncccc1-c1nc2c(c(N3CCc4ccc(OCC(=O)N(C)C)cc43)n1)C[S+]([O-])C2` (stereo not shown) [2-105, 2-[[1-[2-(2-Methoxy-pyridin-3-yl)-6-oxo-5,7-dihydro-thieno[3,4-d]pyrimidin-4-yl]-2,3-dihydro-1H-indol-6-yl]oxy]-N,N-dimethyl-acetamide], the inhibition at 1 µM came to 77% and the pIC50 was 6.00 to 7.00.

For `CN(C)C(=O)COc1ccc2c(c1)N(c1nc(-c3ccccc3C#N)nc3c1C[S+]([O-])C3)CC2` (stereo not shown) [2-103, 2-[[1-[2-(2-Cyano-phenyl)-6-oxo-5,7-dihydro-thieno[3,4-d]pyrimidin-4-yl]-2,3-dihydro-1H-indol-6-yl]oxy]-N,N-dimethyl-acetamide], the inhibition at 1 µM is 91% and the pIC50 is 6.00 to 7.00.

Consider `CC(C)NC(=O)COc1ccc2c(c1)N(c1nc(-c3ccc(Cl)s3)nc3c1CCC3)CC2` [Compound No. 2-66, 2-((1-(2-(5-Chlorothiophen-2-yl)-6,7-dihydro-5H-cyclopenta[d]pyrimidin-4-yl)indolin-6-yl)oxy)-N-isopropylacetamide], for which the inhibition at 1 µM amounted to 32%.

For `O=C(COc1ccc2c(c1)N(c1nc(-c3ccncc3)nc3c1CS(=O)(=O)C3)CC2)N1CCC1` [Compound No. 2-131, 1-(Azetidin-1-yl)-2-((1-(6,6-dioxido-2-(pyridin-4-yl)-5,7-dihydrothieno[3,4-d]pyrimidin-4-yl)indolin-6-yl)oxy)ethanone], the inhibition at 1 µM came out at 90% and the pIC50 is over 7.00.

For `O=C(COc1ccc2c(c1)N(c1nc(-c3ccc(Cl)s3)nc3c1CCC3)CC2)NC1CC1` [Compound No. 2-114, 2-((1-(2-(5-Chlorothiophen-2-yl)-6,7-dihydro-5H-cyclopenta[d]-pyrimidin-4-yl)indolin-6-yl)oxy)-N-cyclopropylacetamide], the inhibition at 1 µM was found to be 38%.

Turning to `COc1cccc(-c2nc3c(c(N4CCc5ccc(OCC(=O)N(C)C)cc54)n2)C[S+]([O-])C3)c1` (stereo not shown) [2-91, 2-[[1-[2-(3-Methoxyphenyl)-6-oxo-5,7-dihydro-thieno[3,4-d]pyrimidin-4-yl]-2,3-dihydro-1H-indol-6-yl]oxy]-N,N-dimethyl-acetamide], the inhibition at 1 µM was 117% and the pIC50 was over 7.00.

As to `COc1ccc(-c2nc3c(c(-n4ncc5cc(CC(=O)O)ccc54)n2)CCC3)cc1Cl` [Compound No. 1-59, 2-(1-(2-(3-Chloro-4-methoxyphenyl)-6,7-dihydro-5H-cyclopenta[d]-pyrimidin-4-yl)-1H-indazol-5-yl)acetic acid], the inhibition at 1 µM is 38%.

As for `COc1ccc(-c2nc3c(c(N4CCc5ccc(OCC(=O)N(C)C)cc54)n2)C[S+]([O-])C3)cc1` (stereo not shown) [2-18, 2-((1-(2-(4-Methoxyphenyl)-6-oxido-5,7-dihydrothieno[3,4-d]pyrimidin-4-yl)indolin-6-yl)oxy)-N,N-dimethylacetamide], the inhibition at 1 µM worked out at 105% and the pIC50 is over 7.00.

Consider `COc1ccc(-c2nc3c(c(N4CCc5cc(CC(=O)O)ccc54)n2)CCC3)cc1` [Compound No. 1-3, 2-(1-(2-(4-Methoxyphenyl)-6,7-dihydro-5H-cyclopenta[d]pyrimidin-4-yl)indolin-5-yl)acetic acid], for which the inhibition at 1 µM turned out to be 83% and the negative logarithm of the IC50 (pIC50) was over 7.00.

With `COc1ccc(-c2nc3c(c(N4CCc5ccc(OCC(=O)N(C)C)cc54)n2)CS(=O)(=O)C3)cc1Cl` [Compound No. 2-33, 2-((1-(2-(3-Chloro-4-methoxyphenyl)-6,6-dioxido-5,7-dihydrothieno[3,4-d]pyrimidin-4-yl)indolin-6-yl)oxy)-N,N-dimethylacetamide], the inhibition at 1 µM came out at 100% and the pIC50 is over 7.00.

As to `CN(C)C(=O)COc1ccc2c(c1)N(c1nc(-c3cccc(F)c3)nc3c1C[S+]([O-])C3)CC2` (stereo not shown) [2-24, 2-[[1-[2-(3-Fluorophenyl)-6-oxo-5,7-dihydro-thieno[3,4-d]pyrimidin-4-yl]-2,3-dihydro-1H-indol-6-yl]oxy]-N,N-dimethyl-acetamide], the inhibition at 1 µM was determined as 115% and the pIC50 was over 7.00.

Turning to `O=C(O)c1ccc2ncn(-c3nc(-c4ccc(Cl)s4)nc4c3CCC4)c2c1` (single isomer, unassigned) [Compound No. 1-74, 1-(2-(5-Chlorothiophen-2-yl)-6,7-dihydro-5H-cyclopenta[d]pyrimidin-4-yl)-1H-benzo[d]imidazole-6-carboxylic acid], the inhibition at 1 µM amounted to 31%.

Turning to `COc1ccc(-c2nc3c(c(N4CCc5ccc(OCC(=O)N(C)C)cc54)n2)C[S+]([O-])C3)cc1F` (stereo not shown) [Compound No. 2-36, 2-((1-(2-(3-Fluoro-4-methoxyphenyl)-6-oxido-5,7-dihydrothieno[3,4-d]pyrimidin-4-yl)indolin-6-yl)oxy)-N,N-dimethylacetamide], the inhibition at 1 µM turned out to be 98% and the negative logarithm of the IC50 (pIC50) is over 7.00.

On to `CN(C)C(=O)COc1ccc2c(c1)N(c1nc(-c3ccc(F)s3)nc3c1C[S+]([O-])C3)CC2` (stereo not shown) [2-48, 2-((1-(2-(5-Fluorothiophen-2-yl)-6-oxido-5,7-dihydrothieno[3,4-d]pyrimidin-4-yl)indolin-6-yl)oxy)-N,N-dimethylacetamide], for which the inhibition at 1 µM is 94% and the pIC50 is over 7.00.

Regarding `O=C(O)c1ccc2c(c1)CCN2c1nc(-c2ccc(Cl)s2)nc2c1CCC2` [Compound No. 1-72, 1-(2-(5-Chlorothiophen-2-yl)-6,7-dihydro-5H-cyclopenta[d]pyrimidin-4-yl)indoline-5-carboxylic acid], the inhibition at 1 µM is 59% and the pIC50 is 6.00 to 7.00.

With `CN(C)C(=O)COc1ccc2c(c1)N(c1nc(-c3cccc(C(F)(F)F)c3)nc3c1C[S+]([O-])C3)CC2` (stereo not shown) [2-101, N,N-Dimethyl-2-[[1-[6-oxo-2-[3-(trifluoromethyl)phenyl]-5,7-dihydro-thieno[3,4-d]pyrimidin-4-yl]-2,3-dihydro-1H-indol-6-yl]oxy]-acetamide], the inhibition at 1 µM turned out to be 120% and the pIC50 is over 7.00.

In the case of `CN(C)C(=O)COc1ccc2c(c1)N(c1nc(-c3ccc(Cl)cc3)nc3c1C[S+]([O-])C3)CC2` (stereo not shown) [2-90, 2-[[1-[2-(4-Chlorophenyl)-6-oxo-5,7-dihydro-thieno[3,4-d]pyrimidin-4-yl]-2,3-dihydro-1H-indol-6-yl]oxy]-N,N-dimethyl-acetamide], the inhibition at 1 µM amounted to 117% and the pIC50 was over 7.00.

For `O=C(COc1ccc2c(c1)N(c1nc(-c3ccc(Cl)s3)nc3c1CS(=O)(=O)C3)CC2)NC1COC1` [Compound No. 2-60, 2-((1-(2-(5-Chlorothiophen-2-yl)-6,6-dioxido-5,7-dihydrothieno[3,4-d]pyrimidin-4-yl)indolin-6-yl)oxy)-N-(oxetan-3-yl)acetamide], the inhibition at 1 µM is 75% and the pIC50 was 6.00 to 7.00.

As to `CNC(=O)COc1ccc2c(c1)N(c1nc(-c3ccc(Cl)s3)nc3c1CS(=O)(=O)C3)CC2` [Compound No. 2-58, 2-((1-(2-(5-Chlorothiophen-2-yl)-6,6-dioxido-5,7-dihydrothieno[3,4-d]pyrimidin-4-yl)indolin-6-yl)oxy)-N-methylacetamide], the inhibition at 1 µM is 70% and the pIC50 was 6.00 to 7.00.

For `CN(C(=O)COc1ccc2c(c1)N(c1nc(-c3ccc(Cl)s3)nc3c1CCC3)CC2)C1CC1` [Compound No. 2-64, 2-((1-(2-(5-Chlorothiophen-2-yl)-6,7-dihydro-5H-cyclopenta[d]pyrimidin-4-yl)indolin-6-yl)oxy)-N-cyclopropyl-N-methylacetamide], the inhibition at 1 µM stood at 65% and the pIC50 is 6.00 to 7.00.
